Assays:
[1] = test system: Homo sapiens; test: Toxicity in 1 to 12 months old infant assessed as adverse events at 13.5 mg/kg, po single dose within 8 days; format: organism-based; design: dose 13.5 mg/kg, route oral; conditions: in vivo, 192 h
[2] = test system: Homo sapiens; test: AUC (0 to 6 hrs) in 6 to 12 months old infant assessed as penciclovir at 6.6 +/- 1.4 mg/kg, po single dose; format: ADME, organism-based, Plasma; design: time < 6 hr, route oral; conditions: in vivo
[3] = test system: Homo sapiens; test: Toxicity in 1 to 12 months old infant assessed as severe adverse events at 13.5 mg/kg, po single dose within 8 days; format: organism-based; design: dose 13.5 mg/kg, route oral; conditions: in vivo, 192 h
[4] = test system: Homo sapiens; test: Cmax in 6 to 12 months old infant assessed as penciclovir at 6.6 +/- 1.4 mg/kg, po single dose; format: ADME, organism-based; design: route oral; conditions: in vivo
[5] = test system: Homo sapiens; test: Cmax in 1 to <3 months old infant assessed as penciclovir at 6.6 +/- 1.4 mg/kg, po single dose; format: ADME, organism-based; design: route oral; conditions: in vivo
[6] = test system: Homo sapiens; test: AUC (0 to 6 hrs) in 1 to <3 months old infant assessed as penciclovir at 6.6 +/- 1.4 mg/kg, po single dose; format: ADME, organism-based, Plasma; design: time < 6 hr, route oral; conditions: in vivo
[7] = test system: Homo sapiens; test: Toxicity in 1 to 12 months old infant assessed as mild adverse events at 13.5 mg/kg, po single dose within 8 days; format: organism-based; design: dose 13.5 mg/kg, route oral; conditions: in vivo, 192 h
[8] = test system: Homo sapiens; test: Tmax in 2 to <6 months old infant assessed as penciclovir at 6.6 +/- 1.4 mg/kg, po single dose; format: ADME, organism-based; design: route oral; conditions: in vivo
[9] = test system: Homo sapiens; test: AUC (0 to 6 hrs) in 2 to <6 months old infant assessed as penciclovir at 6.6 +/- 1.4 mg/kg, po single dose; format: ADME, organism-based, Plasma; design: time < 6 hr, route oral; conditions: in vivo
[10] = test system: Homo sapiens; test: Tmax in 1 to <3 months old infant assessed as penciclovir at 6.6 +/- 1.4 mg/kg, po single dose; format: ADME, organism-based; design: route oral; conditions: in vivo
[11] = test system: Homo sapiens; test: Cmax in 2 to <6 months old infant assessed as penciclovir at 6.6 +/- 1.4 mg/kg, po single dose; format: ADME, organism-based; design: route oral; conditions: in vivo
[12] = test system: Homo sapiens; test: Tmax in 6 to 12 months old infant assessed as penciclovir at 6.6 +/- 1.4 mg/kg, po single dose; format: ADME, organism-based; design: route oral; conditions: in vivo
[13] = test system: Homo sapiens; test: Toxicity in 1 to 12 months old infant assessed as moderate adverse events at 13.5 mg/kg, po single dose within 8 days; format: organism-based; design: dose 13.5 mg/kg, route oral; conditions: in vivo, 192 h

- AUC [2]: 8.77 µg·h/mL
- Cmax [4]: 3.24 µg/mL
- Cmax [5]: 0.69 µg/mL
- AUC [6]: 2.11 µg·h/mL
- Tmax [8]: 4 h
- AUC [9]: 3.16 µg·h/mL
- Tmax [10]: 1 h
- Cmax [11]: 0.74 µg/mL
- Tmax [12]: 1.02 h
SMILES: CC(=O)OCC(CCn1cnc2cnc(N)nc21)COC(C)=O [FAMCICLOVIR]
- Activity [1]: 44.4%
- Activity [3]: 5.6%
- Activity [7]: 16.7%
- Activity [13]: 22.2%

From ChEMBL document CHEMBL1255426, “Single-dose pharmacokinetics of famciclovir in infants and population pharmacokinetic analysis in infants and children” (Antimicrob Agents Chemother, 2010)
